According to PubChem BioAssay AID1963966 (Molecular Pharmacology Branch, DTP, NCI, 2024):
pIC50: −log10 of the molar value.

Tested on: 935938-334-R-J1-PDC spheroids with HUVEC/MSC, viability
Test: Anticancer human tumor 935938-334-R-J1-PDC patient-derived small intestine adenocarcinoma cell line growth inhibition [PI3K]
Settings: for pIC50: curve of first compound; for viability, T/C: stronger effect = lower value
How it was run: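 We assembled tumor spheroids that included a stromal compartment of HUVEC and MSCs, then exposed them to targeted agents alone and together with PI3K pathway inhibitors. Concentration series descended by half-log from clinically achievable Cmax levels. Viability served as the endpoint.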

[1] = second compound 0.0316 µM, first compound 0.0316 µM
[2] = second compound 0.0316 µM, first compound 0.1 µM
[3] = second compound 0.1 µM, first compound 0.0316 µM
[4] = second compound 0.1 µM, first compound 0.1 µM
[5] = second compound 0.316 µM, first compound 0.0316 µM
[6] = second compound 0.316 µM, first compound 0.1 µM
[7] = second compound 1 µM, first compound 0.0316 µM
[8] = second compound 1 µM, first compound 0.1 µM
[9] = second compound 3.16 µM, first compound 0.0316 µM
[10] = second compound 3.16 µM, first compound 0.1 µM
[11] = second compound 10 µM, first compound 0.0316 µM
[12] = second compound 10 µM, first compound 0.1 µM
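Further: compound exposure lasted seven days before viability was read.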
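Wherever viability, T/C is given: percent of vehicle DMSO treated spheroid viability so 100% = untreated.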

`C[C@@H](NC(=O)c1ncnc(N)c1Cl)c1ncc(C(=O)Nc2cc(C(F)(F)F)c(Cl)cn2)s1` + CC(Nc1ncnc2nc[nH]c12)c1cc2cccc(Cl)c2c(=O)n1-c1ccccc1 showed a pIC50 (second compound 0.0316 µM) of under 5.00, a pIC50 (second compound 0.1 µM) of under 5.00 and a pIC50 (second compound 0.316 µM) of under 5.00. For the same compound, the pIC50 (second compound 1 µM) was under 5.00, the pIC50 (second compound 3.16 µM) was under 5.00 and the pIC50 (second compound 10 µM) was under 5.00. It also gave a viability, T/C [1] of 104%, a viability, T/C [2] of 103% and a viability, T/C (second compound 0.0316 µM, first compound 0.316 µM) of 90.1%. The viability, T/C (second compound 0.0316 µM, first compound 1 µM) was 120%, the viability, T/C (second compound 0.0316 µM, first compound 3.16 µM) was 109% and the viability, T/C (second compound 0.0316 µM, first compound 10 µM) was 75.6%. For the same compound, the viability, T/C [3] was 109%, the viability, T/C [4] was 138% and the viability, T/C (second compound 0.1 µM, first compound 0.316 µM) was 123%. It also gave a viability, T/C (second compound 0.1 µM, first compound 1 µM) of 99.8%, a viability, T/C (second compound 0.1 µM, first compound 3.16 µM) of 98.2% and a viability, T/C (second compound 0.1 µM, first compound 10 µM) of 111%. It also gave a viability, T/C [5] of 123%, a viability, T/C [6] of 84.5% and a viability, T/C (second compound 0.316 µM, first compound 0.316 µM) of 118%. It also gave a viability, T/C (second compound 0.316 µM, first compound 1 µM) of 127%, a viability, T/C (second compound 0.316 µM, first compound 3.16 µM) of 98.3% and a viability, T/C (second compound 0.316 µM, first compound 10 µM) of 107%. For the same compound, the viability, T/C [7] was 97.8%, the viability, T/C [8] was 86.6% and the viability, T/C (second compound 1 µM, first compound 0.316 µM) was 126%. The viability, T/C (second compound 1 µM, first compound 1 µM) was 95.1%, the viability, T/C (second compound 1 µM, first compound 3.16 µM) was 117% and the viability, T/C (second compound 1 µM, first compound 10 µM) was 69.8%. For the same compound, the viability, T/C [9] was 91.8%, the viability, T/C [10] was 116% and the viability, T/C (second compound 3.16 µM, first compound 0.316 µM) was 109%. For the same compound, the viability, T/C (second compound 3.16 µM, first compound 1 µM) was 104%, the viability, T/C (second compound 3.16 µM, first compound 3.16 µM) was 90% and the viability, T/C (second compound 3.16 µM, first compound 10 µM) was 70%. The viability, T/C [11] was 81.4%, the viability, T/C [12] was 88.5% and the viability, T/C (second compound 10 µM, first compound 0.316 µM) was 98.7%. For the same compound, the viability, T/C (second compound 10 µM, first compound 1 µM) was 92.9%, the viability, T/C (second compound 10 µM, first compound 3.16 µM) was 87.8% and the viability, T/C (second compound 10 µM, first compound 10 µM) was 60.8%.
Work on `Cn1ncnc1[C@H]1c2n[nH]c(=O)c3cc(F)cc(c23)N[C@@H]1c1ccc(F)cc1` + CC(Nc1ncnc2nc[nH]c12)c1cc2cccc(Cl)c2c(=O)n1-c1ccccc1 yielded a pIC50 (second compound 0.0316 µM) of under 7.00, a pIC50 (second compound 0.1 µM) of under 7.00 and a pIC50 (second compound 0.316 µM) of under 7.00. The pIC50 (second compound 1 µM) was under 7.00, the pIC50 (second compound 3.16 µM) was under 7.00 and the pIC50 (second compound 10 µM) was under 7.00. For the same compound, the viability, T/C (second compound 0.0316 µM, first compound 0.000316 µM) was 95.3%, the viability, T/C (second compound 0.0316 µM, first compound 0.001 µM) was 84.7% and the viability, T/C (second compound 0.0316 µM, first compound 0.00316 µM) was 82.9%. For the same compound, the viability, T/C (second compound 0.0316 µM, first compound 0.01 µM) was 108%, the viability, T/C [1] was 102% and the viability, T/C [2] was 84.3%. It also gave a viability, T/C (second compound 0.1 µM, first compound 0.000316 µM) of 86.7%, a viability, T/C (second compound 0.1 µM, first compound 0.001 µM) of 84.5% and a viability, T/C (second compound 0.1 µM, first compound 0.00316 µM) of 91.8%. It also gave a viability, T/C (second compound 0.1 µM, first compound 0.01 µM) of 80.2%, a viability, T/C [3] of 85.1% and a viability, T/C [4] of 88.1%. The viability, T/C (second compound 0.316 µM, first compound 0.000316 µM) was 109%, the viability, T/C (second compound 0.316 µM, first compound 0.001 µM) was 85.4% and the viability, T/C (second compound 0.316 µM, first compound 0.00316 µM) was 83.6%. For the same compound, the viability, T/C (second compound 0.316 µM, first compound 0.01 µM) was 97.4%, the viability, T/C [5] was 81.3% and the viability, T/C [6] was 83.2%. It also gave a viability, T/C (second compound 1 µM, first compound 0.000316 µM) of 102%, a viability, T/C (second compound 1 µM, first compound 0.001 µM) of 115% and a viability, T/C (second compound 1 µM, first compound 0.00316 µM) of 86.3%. The viability, T/C (second compound 1 µM, first compound 0.01 µM) was 48.2%, the viability, T/C [7] was 93.1% and the viability, T/C [8] was 87.2%. For the same compound, the viability, T/C (second compound 3.16 µM, first compound 0.000316 µM) was 98%, the viability, T/C (second compound 3.16 µM, first compound 0.001 µM) was 71.9% and the viability, T/C (second compound 3.16 µM, first compound 0.00316 µM) was 90.9%. It also gave a viability, T/C (second compound 3.16 µM, first compound 0.01 µM) of 70.9%, a viability, T/C [9] of 83.2% and a viability, T/C [10] of 84.1%. The viability, T/C (second compound 10 µM, first compound 0.000316 µM) was 62.7%, the viability, T/C (second compound 10 µM, first compound 0.001 µM) was 89% and the viability, T/C (second compound 10 µM, first compound 0.00316 µM) was 94.6%. For the same compound, the viability, T/C (second compound 10 µM, first compound 0.01 µM) was 81.5%, the viability, T/C [11] was 91.6% and the viability, T/C [12] was 67.8%.
